Results on one molecule are retold here after patent US8709718B1, “Method of treating lung cancer” (Max-Planck-Gesellschaft zur Forderung der Wissenschaften …, priority 2011, dated 2014).

In series [1] the test system is 83 lung cancer cell lines. Put plainly: Cell-line screening, viability by cellular ATP content (CellTiter-Glo). It counts as cell-based. (ATP-based viability assays read luminescence as a measure of living cells.)
For series [2], the system named is PDGFRA- and FGFR1-amplified cell line H1703. Conditions: 96 h of compound treatment, increasing concentrations. How it is done:
Viability was determined after 96 hours by measuring cellular ATP content (CellTiter-Glo, Promega). Half-maximal inhibitory concentrations (GI50) were determined using the statistical data analysis software “R” with the package “ic50”.

For series [3], the system named is lung cancer cells carrying amplified FGFR1. Put plainly: Apoptosis by Annexin V/PI flow cytometry. It counts as cell-based. Conditions: 1.0 μM, 72 hours, versus DMSO; specifically in FGFR1-amplified cells; p=0.008. As for the experimental part:
Finally the cells were analyzed on a FACS Canto FlowCytometer (BD Biosciences).

Series [4] concerns FGFR1-amplified cell lines. Briefly: Soft-agar colony formation assay. The format is cell-based. To be noted: FGFR1-amplified cells. How it is done:
Cells were suspended in growth media containing 10% FCS and 0.6% agar and plated in triplicate on 50 μl solidified growth medium (10% FCS; 1.0% agar). Growth medium containing indicated compound concentrations was added on top. Colonies were analyzed using the Scanalyzer imaging system (Lemnatec, Germany).

The test system of series [5] is EGFR-mutant cell line HCC827. Briefly: Immunoblotting of phosphorylated FGFR and downstream molecules. It counts as cell-based. The source says:
(§1) The following antibodies were used for immunoblotting: β-actin (MPBioscience), phospho-FGFR(Y653, Y654), pFRS2 (Tyr196), p-AKT (S473), pS6, S6, AKT, p-ERK, ERK (Cell Signaling Technology), total-FGFR1 (Santa Cruz), anti-rabbit-HRP, anti-mouse-HRP-antibody (Millipore).
(Immunoblotting shows a protein as a band on a membrane.)

Series [6] concerns FGFR1-amplified cells (H1581, H520). Described as above. The format is cell-based.
Source text: as §1

The subject of series [7] is FGFR1 amplified cell line H520. Put plainly: FGFR1 phosphorylation by immunoprecipitation. The format is cell-based. Conditions: H520, 1 μM. As for the experimental part:
For the detection of FGFR1 phosphorylation, whole-cell lysates (0.5-1 mg) in NP40 lysis buffer was incubated with agarose A/G Plus preconjugated with the FGFR1 antibody. Immunoprecipitates were washed in NP40 lysis buffer, boiled in sample buffer, and subjected to SDS-PAGE followed by immunoblotting using an anti phospho-tyrosine residues antibody to detect specific phosphorylation of FGFR1.

Series [8] deals with FGFR1-amplified lung cancer cells expressing FGFR1^V561M. To be noted: 0.5 μM and 1.0 μM. The source says:
The V561M mutation was introduced into FGFR1 cloned in pBABE-Puro by site-directed mutagenesis. Replication-incompetent retroviruses were produced by contransfection with the pCL-ampho plasmid in HEK 293T cells. Hairpin shRNA targeting the different genes were ordered from Sigma. Replication-incompetent lentiviruses were produced from pLKO.1-Puro based vectors by contransfection with Δ8.9 and pMGD2 in 293T cells as described previously (Sos et al., Cancer Res 70, 868-874 (2010)). After transduction cells were selected with puromycin (1.5 μg/ml) and five days after selection cells were counted using trypan blue.

The test system of another series is H1581 cells. Briefly: Xenograft mouse model, FGFR1-amplified H1581 cells. It counts as in vivo. To be noted: 100 mg/kg twice a day, oral gavage, mice engrafted with FGFR1-amplified cells. As for the experimental part: (§2) All animal procedures were approved by the local animal protection committee and the local authorities. 5*10^6 tumor cells were injected subcutaneously into male nude mice.

The subject of series [9] is H1975 (FGFR1 wild type) cells. Put plainly: Xenograft mouse model, EGFR-mutant H1975 cells. The format is in vivo, mice. Conditions: xenografted EGFR-mutant H1975 cells. How it is done:
as §2

The subject of series [10] is phospho-ERK, phospho-AKT in FGFR1-amplified tumors. Briefly: Immunohistochemical staining of explanted tumors. The format is in vivo, mice. To be noted: end of treatment. The text has this:
Mice bearing FGFR1-amplified tumors were sacrificed at the end of treatment. Tumors were exgrafted and embedded in paraffin. […] Antibodies recognizing pAKT, pERK, AKT and ERK were obtained from Cell signaling.

Series [11] can be described thus: Pharmacokinetics of PD173074 in mice. It counts as in vivo. As for the experimental part: Pharmacokinetic data were created by taking blood-samples from male nude mice by puncture of the tail-vein under isoflurane anesthesia. […] All blood samples were centrifuged; the blood plasma-containing supernatant was extracted and stored at -20° C. Analytic samples were prepared from the blood plasma by acetonitrile extraction with an internal standard of 1 μM griseofulvin. […] Pharmacokinetic data was evaluated with WinNonlin Software (Pharsight).

A further series addresses FGFR1 (Homo sapiens, UniProt P11362). To be noted: FGFR1 one of only two of 105 kinases.

Sequence of FGFR1 (P11362 22-822): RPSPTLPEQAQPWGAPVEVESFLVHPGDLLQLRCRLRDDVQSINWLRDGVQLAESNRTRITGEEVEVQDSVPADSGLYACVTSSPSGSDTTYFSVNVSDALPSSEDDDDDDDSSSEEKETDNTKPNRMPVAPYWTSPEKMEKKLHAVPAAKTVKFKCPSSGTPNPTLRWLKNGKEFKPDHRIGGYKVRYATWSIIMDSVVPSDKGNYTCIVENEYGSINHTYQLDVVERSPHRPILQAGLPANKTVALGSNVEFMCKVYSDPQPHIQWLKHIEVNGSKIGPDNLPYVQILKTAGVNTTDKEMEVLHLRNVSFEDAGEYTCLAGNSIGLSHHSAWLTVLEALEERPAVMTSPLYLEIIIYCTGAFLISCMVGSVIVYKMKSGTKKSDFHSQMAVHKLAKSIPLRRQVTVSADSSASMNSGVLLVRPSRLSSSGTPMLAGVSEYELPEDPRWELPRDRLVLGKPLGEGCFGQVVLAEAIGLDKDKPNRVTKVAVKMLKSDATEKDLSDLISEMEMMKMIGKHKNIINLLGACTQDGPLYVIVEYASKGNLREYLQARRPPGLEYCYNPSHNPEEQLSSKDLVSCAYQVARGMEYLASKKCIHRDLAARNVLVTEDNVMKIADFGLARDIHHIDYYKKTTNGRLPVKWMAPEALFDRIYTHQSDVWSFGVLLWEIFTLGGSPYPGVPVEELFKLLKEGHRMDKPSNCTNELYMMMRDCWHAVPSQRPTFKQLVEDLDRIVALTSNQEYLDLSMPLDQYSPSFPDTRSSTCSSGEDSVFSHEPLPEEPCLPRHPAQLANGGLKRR

With `CCN(CC)CCCCNc1ncc2cc(-c3cc(OC)cc(OC)c3)c(NC(=O)NC(C)(C)C)nc2n1` [PD173074], in series [1] (H520, derived from a squamous-cell lung cancer patient), the “sensitivity of FGFR1-amplified cell line H520” value is “sensitive”. In addition, the GI50 in series [1] (four of the 83 lung cancer cell lines tested, viability after 96 hours, read-out: half-maximal growth inhibitory concentration (GI50)) is below 1000 nM. Besides, the growth inhibition result in series [1] (specifically in lung cancer cells carrying amplified FGFR1, p=0.0002) was “inhibited growth”. The “activity on viability of H1703 cells” value in series [2] is recorded as “not active”. In addition, the induction of apoptosis entry in [3] is listed as “induced apoptosis”. For the same molecule, the “colony formation in soft agar” value in [4] is “decreased colony formation”. Also, the “levels of phosphorylated FGFR1 and FRS2” value in series [5] is “not in the EGFR-mutant cell line HCC827”. In addition, in [6], the “levels of phosphorylated FGFR1” value was “reduced the levels of phosphorylated FGFR1” and the “phosphorylation of ERK” value is listed as “inhibition of phosphorylation of ERK”. In addition, the “phosphorylation of FGFR1 (phosphotyrosine after immunoprecipitation)” value in series [7] was “leads to dephosphorylation of FGFR1”. In addition, in [8], the “cytotoxicity and dephosphorylation of FGFR on expression of FGFR1^V561M” value is reported as “abolished”. Further, in the series on H1581 cells, the tumor size result was “tumor shrinkage”. Moreover, the tumor regression result in series [9] is listed as “did not show signs of regression”. In series [10], the “levels of phospho-AKT in explanted tumors” value is reported as “not of phospho-AKT” and the “levels of phospho-ERK in explanted tumors” value is recorded as “reduction in the levels of phospho-ERK”. For the same molecule, the exposure result in series [11] (50 mg/kg twice a day compared to 100 mg/kg twice a day) is on record as “only a minimal exposure”. Also, the half-life in vivo result in [11] (mice) is recorded as “short half-life”. For the same molecule, at FGFR1, the kinase inhibition result is “strongly inhibited”.
